Measured values published in PubChem BioAssay (NCI).
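Tested at 5 concentrations; 48 h exposure; 96-well plates; endpoints linearly interpolated, else capped at highest concentration. At the TGI there is no net growth.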

Tests used:
Assay in all cases: NCI tumour cell line growth inhibition, 48 h
HCC-2998 colon = tested on: HCC-2998 colon
SR leukemia = tested on: SR leukemia
SF-295 CNS = tested on: SF-295 CNS
NCI-H23 lung = tested on: NCI-H23 lung
COLO 205 colon = tested on: COLO 205 colon
CCRF-CEM leukemia = tested on: CCRF-CEM leukemia
SF-539 CNS = tested on: SF-539 CNS
A498 renal = tested on: A498 renal
T-47D breast = tested on: T-47D breast
HOP-92 NSCLC = tested on: HOP-92 NSCLC
OVCAR-8 ovarian = tested on: OVCAR-8 ovarian
TK-10 renal = tested on: TK-10 renal
A549 NSCLC = tested on: A549 NSCLC
SK-MEL-5 melanoma = tested on: SK-MEL-5 melanoma
PC-3 prostate = tested on: PC-3 prostate
HL-60(TB) leukemia = tested on: HL-60(TB) leukemia
NCI-H460 lung = tested on: NCI-H460 lung
MDA-N = tested on: MDA-N
RPMI-8226 leukemia = tested on: RPMI-8226 leukemia
BT-549 breast = tested on: BT-549 breast
ACHN renal = tested on: ACHN renal
HCT-116 colon = tested on: HCT-116 colon
MALME-3M melanoma = tested on: MALME-3M melanoma
786-0 renal = tested on: 786-0 renal
SK-MEL-28 melanoma = tested on: SK-MEL-28 melanoma
UACC-257 melanoma = tested on: UACC-257 melanoma
OVCAR-5 ovarian = tested on: OVCAR-5 ovarian
OVCAR-3 ovarian = tested on: OVCAR-3 ovarian
M14 melanoma = tested on: M14 melanoma
NCI-H522 lung = tested on: NCI-H522 lung
MDA-MB-231 breast = tested on: MDA-MB-231 breast
UO-31 renal = tested on: UO-31 renal
CAKI-1 renal = tested on: CAKI-1 renal
IGROV1 ovarian = tested on: IGROV1 ovarian
RXF 393 renal = tested on: RXF 393 renal
NCI-H226 lung = tested on: NCI-H226 lung
SNB-19 CNS = tested on: SNB-19 CNS
NCI/ADR-RES ovarian = tested on: NCI/ADR-RES ovarian
SN12C renal = tested on: SN12C renal
U251 CNS = tested on: U251 CNS
HS 578T breast = tested on: HS 578T breast
HOP-62 NSCLC = tested on: HOP-62 NSCLC
SW-620 colon = tested on: SW-620 colon
SK-OV-3 ovarian = tested on: SK-OV-3 ovarian
K-562 leukemia = tested on: K-562 leukemia
EKVX NSCLC = tested on: EKVX NSCLC
HCT-15 colon = tested on: HCT-15 colon
LOX IMVI melanoma = tested on: LOX IMVI melanoma
DU-145 prostate = tested on: DU-145 prostate
SNB-75 CNS = tested on: SNB-75 CNS
MOLT-4 leukemia = tested on: MOLT-4 leukemia
SF-268 CNS = tested on: SF-268 CNS
KM12 colon = tested on: KM12 colon
MDA-MB-435 = tested on: MDA-MB-435
UACC-62 melanoma = tested on: UACC-62 melanoma
MCF7 breast = tested on: MCF7 breast
HT29 colon = tested on: HT29 colon
SK-MEL-2 melanoma = tested on: SK-MEL-2 melanoma
OVCAR-4 ovarian = tested on: OVCAR-4 ovarian

## COc1cc(Nc2nc3ccccc3nc2C(=O)O)cc(OC)c1OC
HCC-2998 colon
  TGI: > 100 µM
SR leukemia
  TGI: > 100 µM
SF-295 CNS
  TGI: > 100 µM
NCI-H23 lung
  TGI: > 100 µM
COLO 205 colon
  TGI: > 100 µM
CCRF-CEM leukemia
  TGI: > 100 µM
SF-539 CNS
  TGI: > 100 µM
A498 renal
  TGI: 82.5 µM
T-47D breast
  TGI: > 100 µM
HOP-92 NSCLC
  TGI: 92.7 µM
OVCAR-8 ovarian
  TGI: > 100 µM
TK-10 renal
  TGI: 78.6 µM
A549 NSCLC
  TGI: > 100 µM
SK-MEL-5 melanoma
  TGI: > 100 µM
PC-3 prostate
  TGI: > 100 µM
HL-60(TB) leukemia
  TGI: > 100 µM
NCI-H460 lung
  TGI: > 100 µM
MDA-N
  TGI: > 100 µM
RPMI-8226 leukemia
  TGI: > 100 µM
BT-549 breast
  TGI: > 100 µM
ACHN renal
  TGI: > 100 µM
HCT-116 colon
  TGI: > 100 µM
MALME-3M melanoma
  TGI: > 100 µM
786-0 renal
  TGI: > 100 µM
SK-MEL-28 melanoma
  TGI: > 100 µM
UACC-257 melanoma
  TGI: > 100 µM
OVCAR-5 ovarian
  TGI: > 100 µM
OVCAR-3 ovarian
  TGI: > 100 µM
M14 melanoma
  TGI: > 100 µM
NCI-H522 lung
  TGI: > 100 µM
MDA-MB-231 breast
  TGI: > 100 µM
UO-31 renal
  TGI: > 100 µM
CAKI-1 renal
  TGI: 76.4 µM
IGROV1 ovarian
  TGI: > 100 µM
RXF 393 renal
  TGI: > 100 µM
NCI-H226 lung
  TGI: > 100 µM
SNB-19 CNS
  TGI: > 100 µM
NCI/ADR-RES ovarian
  TGI: > 100 µM
SN12C renal
  TGI: > 100 µM
U251 CNS
  TGI: > 100 µM
HS 578T breast
  TGI: 92 µM
HOP-62 NSCLC
  TGI: > 100 µM
SW-620 colon
  TGI: > 100 µM
SK-OV-3 ovarian
  TGI: > 100 µM
K-562 leukemia
  TGI: > 100 µM
EKVX NSCLC
  TGI: > 100 µM
HCT-15 colon
  TGI: > 100 µM
LOX IMVI melanoma
  TGI: > 100 µM
DU-145 prostate
  TGI: > 100 µM
SNB-75 CNS
  TGI: > 100 µM
MOLT-4 leukemia
  TGI: > 100 µM
SF-268 CNS
  TGI: > 100 µM
KM12 colon
  TGI: > 100 µM
MDA-MB-435
  TGI: > 100 µM

## O=C1/C(=C/c2ccc(Br)s2)NC(=S)N1c1ccccc1
HCC-2998 colon
  TGI: > 100 µM
SR leukemia
  TGI: > 100 µM
SF-295 CNS
  TGI: > 100 µM
NCI-H23 lung
  TGI: > 100 µM
COLO 205 colon
  TGI: > 100 µM
CCRF-CEM leukemia
  TGI: > 100 µM
A498 renal
  TGI: > 100 µM
UACC-62 melanoma
  TGI: > 100 µM
HOP-92 NSCLC
  TGI: 71.6 µM
MCF7 breast
  TGI: > 100 µM
TK-10 renal
  TGI: > 100 µM
SK-MEL-5 melanoma
  TGI: > 100 µM
PC-3 prostate
  TGI: > 100 µM
HT29 colon
  TGI: > 100 µM
HL-60(TB) leukemia
  TGI: > 100 µM
NCI-H460 lung
  TGI: > 100 µM
MDA-N
  TGI: > 100 µM
RPMI-8226 leukemia
  TGI: 85.1 µM
BT-549 breast
  TGI: > 100 µM
ACHN renal
  TGI: > 100 µM
HCT-116 colon
  TGI: > 100 µM
MALME-3M melanoma
  TGI: > 100 µM
786-0 renal
  TGI: > 100 µM
SK-MEL-28 melanoma
  TGI: > 100 µM
UACC-257 melanoma
  TGI: > 100 µM
OVCAR-5 ovarian
  TGI: > 100 µM
OVCAR-3 ovarian
  TGI: > 100 µM
NCI-H522 lung
  TGI: > 100 µM
MDA-MB-231 breast
  TGI: > 100 µM
UO-31 renal
  TGI: > 100 µM
CAKI-1 renal
  TGI: > 100 µM
IGROV1 ovarian
  TGI: > 100 µM
RXF 393 renal
  TGI: > 100 µM
NCI-H226 lung
  TGI: > 100 µM
SNB-19 CNS
  TGI: > 100 µM
SK-MEL-2 melanoma
  TGI: > 100 µM
OVCAR-4 ovarian
  TGI: > 100 µM
SN12C renal
  TGI: > 100 µM
U251 CNS
  TGI: > 100 µM
HS 578T breast
  TGI: > 100 µM
HOP-62 NSCLC
  TGI: > 100 µM
SW-620 colon
  TGI: > 100 µM
SK-OV-3 ovarian
  TGI: > 100 µM
K-562 leukemia
  TGI: > 100 µM
EKVX NSCLC
  TGI: > 100 µM
HCT-15 colon
  TGI: > 100 µM
LOX IMVI melanoma
  TGI: > 100 µM
DU-145 prostate
  TGI: > 100 µM
MOLT-4 leukemia
  TGI: > 100 µM
SF-268 CNS
  TGI: > 100 µM
KM12 colon
  TGI: > 100 µM
MDA-MB-435
  TGI: > 100 µM
